Measured values as given in patent US20260070929A1, “METHODS AND COMPOSITIONS FOR MODULATING KRAS(G12D)” (Ranok Therapeutics (Hangzhou) Co. LTD., priority 2022, published 2026).

Assays:
KRAS(G12D)/SOS1 = target: T1, KRAS(G12D)/SOS1 (Homo sapiens, UniProt P01116, G12D); assay: KRAS(G12D)/SOS1 homogeneous time-resolved fluorescence (HTRF) assay; assay type: binding; settings: absence of GTP; 4° C., 3 hr
T1 construct: purchased Cisbio 63ADK000CB17PEH
Protocol: Binding of test compounds to KRAS(G12D) target protein, which in turn blocks KRAS(G12D) interaction with the SOS1 protein, was measured in the absences of GTP by homogeneous time-resolved fluorescence using the KRAS-G12D/SOS1 Binding Assay Kit (Cisbio, 63ADK000CB17PEH), following the manufacturer's instructions, except as noted. 3-fold serial dilutions of each test compound were prepared ranging from 20 µM to 1.02 nM. The test compound was mixed and incubated with reaction components, incubated in a sealed plate at 4° C. for 3 hr and fluorescence was measured using a PerkinElmer Envision plate reader. The KRAS(G12D)-SOS1 IC50 values (the concentration of 50% of the maximal inhibition) were calculated using GraphPad Prism 7 software.

[1] = tested on: ASPC1 pancreatic adenocarcinoma cells [homozygous G12D]; assay: Cancer cell line proliferation (CellTiter-Glo), ASPC1; assay type: cell-based; settings: Homo sapiens, ASPC1, 72 h, 72 hr treatment, read-out: ASPC-1 CTG (EC50)
Protocol: (§1) The following cancer cell lines were employed: AGS gastric carcinoma [heterozygous G12D](ATCC, CRL-1739); A-427 lung carcinoma [heterozygous G12D](ATCC, HTB-53); ASPC1 pancreatic adenocarcinoma [homozygous G12D](ATCC, CRL-1682) and SW1990 pancreatic adenocarcinoma [homozygous G12D](ATCC CRL-2172). Cell lines were cultured essentially according to ATCC recommendations.
(§2) AGS, A-427, ASPC1, SW1990, and GP2D cells were plated in 96-well tissue culture plates at 4,000 cells/well and incubated at 37° C./5% CO2 for 72 hr in 100 μl of media. 3-fold serial dilutions of each test compound were prepared ranging from 20 μM to 1.02 nM. Each cell line was then treated with test compounds at various concentrations with a final concentration of 0.5% DMSO/well, and then incubated at 37° C./5% CO2 for 72 hr. 100 µl of CellTiter-Glo® Reagent (Promega Corporation, Madison, WI) was added to each well and processed according manufacturer's protocol. Results were analyzed and EC50 values were calculated in GraphPad 7 software.

[2] = tested on: A-427 lung carcinoma cells [heterozygous G12D]; assay: Cancer cell line proliferation (CellTiter-Glo), A-427; assay type: cell-based; settings: Homo sapiens, A-427 cells, 72 hr treatment, read-out: A427 CTG (EC50)
Protocol: as §1, §2

[3] = tested on: AGS gastric carcinoma cells [heterozygous G12D]; assay: Cancer cell line proliferation (CellTiter-Glo), AGS; assay type: cell-based; settings: Homo sapiens, 72 hr treatment, read-out: AGS CTG (EC50)
Protocol: as §1, §2

T1 sequence (P01116 1-188 isoform P01116-2 G12D): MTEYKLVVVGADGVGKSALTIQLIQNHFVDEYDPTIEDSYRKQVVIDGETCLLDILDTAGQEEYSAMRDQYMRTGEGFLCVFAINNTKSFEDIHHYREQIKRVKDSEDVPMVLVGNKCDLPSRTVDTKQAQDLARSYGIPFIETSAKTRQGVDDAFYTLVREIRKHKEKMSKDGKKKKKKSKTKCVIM

Structure (SMILES) | IC50 (KRAS(G12D)/SOS1) | EC50 [1] | EC50 [2] | EC50 [3]
CC(C)c1cc(-c2nnc(O)n2-c2ccc(CN3CCN(C(=O)C4CCN([C@H]5C[C@@H](COc6nc(N7CC8CCC(C7)N8)c7cnc(-c8cccc9cccc(Cl)c89)cc7n6)N(C)C5)CC4)CC3)cc2)c(O)cc1O [Compound 4] | 100 to 1000 nM | > 1000 nM | – | –
CC(C)c1cc(-c2nnc(O)n2-c2ccc(CN3CCN(C(=O)C4CCN([C@H]5C[C@@H](COc6nc(N7CC8CCC(C7)N8)c7cnc(-c8cccc9cccc(Cl)c89)c(F)c7n6)N(C)C5)CC4)CC3)cc2)c(O)cc1O [Compound 5] | < 100 nM | > 1000 nM | > 1000 nM | –
CCNC(=O)c1nnc(-c2cc(C(C)C)c(O)cc2O)n1-c1ccc(CN2CCN(C(=O)C3CCN([C@H]4C[C@@H](COc5nc(N6CC7CCC(C6)N7)c6cnc(-c7cccc8cccc(Cl)c78)c(F)c6n5)N(C)C4)CC3)CC2)cc1 [Compound 6] | 100 to 1000 nM | > 1000 nM | 100 to 1000 nM | 100 to 1000 nM
CNC(=O)c1nnc(-c2cc(C(C)C)c(O)cc2O)n1-c1ccc(CN2CCN(C(=O)C3CCN([C@H]4C[C@@H](COc5nc(N6CC7CCC(C6)N7)c6cnc(-c7cccc8cccc(Cl)c78)c(F)c6n5)N(C)C4)CC3)CC2)cc1 [Compound 7] | 100 to 1000 nM | 100 to 1000 nM | 100 to 1000 nM | < 100 nM
CNC(=O)c1nnc(-c2cc(C)c(O)cc2O)n1-c1ccc(CN2CCN(C(=O)C3CCN([C@H]4C[C@@H](COc5nc(C6CC7CCC(C6)N7)c6cnc(-c7cccc8cccc(Cl)c78)c(F)c6n5)N(C)C4)CC3)CC2)cc1 (some centres unmarked) [Compound 8] | < 100 nM | > 1000 nM | > 1000 nM | > 1000 nM
CCc1cc(-c2nnc(C(=O)NC)n2-c2ccc(CN3CCN(C(=O)C4CCN([C@H]5C[C@@H](COc6nc(C7CC8CCC(C7)N8)c7cnc(-c8cccc9cccc(Cl)c89)c(F)c7n6)N(C)C5)CC4)CC3)cc2)c(O)cc1O (some centres unmarked) [Compound 9] | 100 to 1000 nM | > 1000 nM | > 1000 nM | 100 to 1000 nM
C#Cc1cccc2cccc(-c3ncc4c(N5CC6CCC(C5)N6)nc(OCC5(CN6CCN(Cc7ccc(-n8c(O)nnc8-c8cc(C(C)C)c(O)cc8O)cc7)CC6)CC5)nc4c3F)c12 [Compound 10] | < 100 nM | > 1000 nM | 100 to 1000 nM | 100 to 1000 nM
C#Cc1cccc2cccc(-c3ncc4c(N5CC6CCC(C5)N6)nc(OCC5(CN6CCN(Cc7ccc8c(c7)CN(C(=O)c7cc(C(C)C)c(O)cc7O)C8)CC6)CC5)nc4c3F)c12 [Compound 11] | < 100 nM | 100 to 1000 nM | 100 to 1000 nM | 100 to 1000 nM
C#Cc1cccc2cccc(-c3ncc4c(N5CC6CCC(C5)N6)nc(OCC5(CN6CCN(Cc7ccc(-n8c(C(=O)NCC)nnc8-c8cc(C(C)C)c(O)cc8O)cc7)CC6)CC5)nc4c3F)c12 [Compound 12] | < 100 nM | 100 to 1000 nM | < 100 nM | < 100 nM
C#Cc1cccc2cccc(-c3ncc4c(N5CC6CCC(C5)N6)nc(OCCN5CCN(Cc6ccc(-n7c(O)nnc7-c7cc(C(C)C)c(O)cc7O)cc6)CC5)nc4c3F)c12 [Compound 13] | 100 to 1000 nM | > 1000 nM | 100 to 1000 nM | 100 to 1000 nM
C#Cc1cccc2cccc(-c3ncc4c(N5CC6CCC(C5)N6)nc(OCCN5CCN(Cc6ccc7c(c6)CN(C(=O)c6cc(C(C)C)c(O)cc6O)C7)CC5)nc4c3F)c12 [Compound 14] | 100 to 1000 nM | 100 to 1000 nM | 100 to 1000 nM | 100 to 1000 nM
CCNC(=O)c1nnc(-c2cc(C(C)C)c(O)cc2O)n1-c1ccc(CN2CCN(C[C@H]3C[C@@H](COc4nc(N5CC6CCC(C5)N6)c5cnc(-c6cc(O)cc7ccccc67)c(F)c5n4)N(C)C3)CC2)cc1 [Compound 95] | < 100 nM | – | 100 to 1000 nM | < 100 nM
C#Cc1cccc2cc(O)cc(-c3ncc4c(N5CC6CCC(C5)N6)nc(OC[C@@H]5C[C@H](N6CCN(Cc7ccc(-n8c(C(=O)NCC)nnc8-c8cc(C(C)C)c(O)cc8O)cc7)CC6)CN5C)nc4c3F)c12 [Compound 96] | < 100 nM | – | 100 to 1000 nM | 100 to 1000 nM
C#Cc1cccc2cc(O)cc(-c3ncc4c(N5CC6CCC(C5)N6)nc(OC[C@@H]5C[C@H](N6CCN(C(=O)C7CCN(Cc8ccc9c(c8)CN(C(=O)c8cc(C(C)C)c(O)cc8O)C9)CC7)CC6)CN5C)nc4c3F)c12 [Compound 97] | < 100 nM | – | 100 to 1000 nM | 100 to 1000 nM
C#Cc1cccc2cc(O)cc(-c3ncc4c(N5CC6CCC(C5)N6)nc(OC[C@@H]5C[C@H](N6CCN(Cc7ccc(-n8c(C(=O)NC(C)C(F)(F)F)nnc8-c8cc(C(C)C)c(O)cc8O)cc7)CC6)CN5C)nc4c3F)c12 (some centres unmarked) [Compound 98] | < 100 nM | – | 100 to 1000 nM | 100 to 1000 nM
C#Cc1cccc2cc(O)cc(-c3ncc4c(N5CC6CCC(C5)N6)nc(OC[C@@H]5C[C@H](N6CCN(Cc7ccc(-n8c(C(=O)NCC(F)(F)F)nnc8-c8cc(CC)c(O)cc8O)cc7)CC6)CN5C)nc4c3F)c12 [Compound 99] | < 100 nM | – | 100 to 1000 nM | 100 to 1000 nM
CC(C)c1cc(-c2nnc(C(=O)NC(C)C(F)(F)F)n2-c2ccc(CN3CCN([C@H]4C[C@@H](COc5nc(N6CC7CCC(C6)N7)c6cnc(-c7cc(O)cc8ccccc78)c(F)c6n5)N(C)C4)CC3)cc2)c(O)cc1O (some centres unmarked) [Compound 100] | < 100 nM | – | 100 to 1000 nM | < 100 nM
CC(C)c1cc(-c2nnc(C(=O)NCC(F)(F)F)n2-c2ccc(CN3CCN([C@H]4C[C@@H](COc5nc(N6CC7CCC(C6)N7)c6cnc(-c7cc(O)cc8ccccc78)c(F)c6n5)N(C)C4)CC3)cc2)c(O)cc1O [Compound 101] | < 100 nM | – | 100 to 1000 nM | < 100 nM
COc1cccc2cccc(-c3ncc4c(N5CC6CCC(C5)N6)nc(OC[C@@H]5C[C@H](N6CCN(C(=O)C7CCN(Cc8ccc9c(c8)CN(C(=O)c8cc(C(C)C)c(O)cc8O)C9)CC7)CC6)CN5C)nc4c3F)c12 [Compound 104] | > 1000 nM | – | 100 to 1000 nM | 100 to 1000 nM
CCc1cc(-c2nnc(C(=O)NCC(F)(F)F)n2-c2ccc(CN3CCN([C@H]4C[C@@H](COc5nc(N6CC7CCC(C6)N7)c6cnc(-c7cccc8cccc(OC)c78)c(F)c6n5)N(C)C4)CC3)cc2)c(O)cc1O [Compound 105] | > 1000 nM | – | 100 to 1000 nM | 100 to 1000 nM
COc1cccc2cccc(-c3ncc4c(N5CC6CCC(C5)N6)nc(OC[C@@H]5C[C@H](N6CCN(Cc7ccc(-n8c(C(=O)NC(C)C(F)(F)F)nnc8-c8cc(C(C)C)c(O)cc8O)cc7)CC6)CN5C)nc4c3F)c12 (some centres unmarked) [Compound 106] | > 1000 nM | – | 100 to 1000 nM | < 100 nM
CCc1cc(-c2nnc(C(=O)NCC(F)(F)F)n2-c2ccc(CN3CCN(C[C@H]4CC[C@@H](COc5nc(N6CC7CCC(C6)N7)c6cnc(-c7cccc8cccc(C)c78)c(F)c6n5)N4C)CC3)cc2)c(O)cc1O [Compound 108] | 100 to 1000 nM | – | 100 to 1000 nM | 100 to 1000 nM
CC(C)c1cc(-c2nnc(C(=O)NCC(F)(F)F)n2-c2ccc(CN3CCN([C@H]4C[C@@H](COc5nc(N6CC7CCC(C6)N7)c6cnc(-c7cccc8cccc(F)c78)c(F)c6n5)N(C)C4)CC3)cc2)c(O)cc1O [Compound 109] | 100 to 1000 nM | – | 100 to 1000 nM | < 100 nM
CC(C)c1cc(-c2nnc(C(=O)NC(C)C(F)(F)F)n2-c2ccc(CN3CCN(C[C@H]4C[C@@H](COc5nc(N6CC7CCC(C6)N7)c6cnc(-c7cc(O)cc8ccccc78)c(F)c6n5)N(C)C4)CC3)cc2)c(O)cc1O (some centres unmarked) [Compound 118] | < 100 nM | – | 100 to 1000 nM | < 100 nM
C#Cc1cccc2cc(O)cc(-c3ncc4c(N5CC6CCC(C5)N6)nc(OCC5(CN6CCC(C(=O)N7CCN(Cc8ccc(-n9c(C(=O)NCC(F)(F)F)nnc9-c9cc(C(C)C)c(O)cc9O)cc8)CC7)CC6)CC5)nc4c3F)c12 [Compound 119] | < 100 nM | – | 100 to 1000 nM | < 100 nM
C#Cc1cccc2cc(O)cc(-c3ncc4c(N5CC6CCC(C5)N6)nc(OCC5(CN6CCC(C(=O)N7CCN(Cc8ccc9c(c8)CN(C(=O)c8cc(C(C)C)c(O)cc8O)C9)CC7)CC6)CC5)nc4c3F)c12 [Example 3, 4-{5-[(4-{1-[(1-{[(4-{3,8-diazabicyclo[3.2.1]octan-3-yl}-7-(8-ethynyl-3-hydroxynaphthalen-1-yl)-8-fluoropyrido[4,3-d]pyrimidin-2-yl)oxy]methyl}cyclopropyl)methyl]piperidine-4-carbonyl}piperazin-1-yl)methyl]-1,3-dihydroisoindole-2-carbonyl}-6-isopropylbenzene-1,3-diol] | < 100 nM | – | 100 to 1000 nM | < 100 nM
